Reference: US20250313547A1, “CEREBLON LIGANDS AND BIFUNCTIONAL COMPOUNDS COMPRISING THE SAME” (Arvinas Operations, Inc., priority 2017, published 2025)

Tested on: androgen receptor (AR)
Assay: AR ELISA assay (androgen receptor degradation)
Type: cell-based
Settings: LNCaP and/or VCaP cells, 5 hours drug treatment; for AR Dmax: % degraded
Procedure: 5. AR ELISA Assay Protocol
Compounds were evaluated in this assay in LNCaP and/or VCaP cells utilizing similar protocols. The protocols used with VCaP cells are described below. The androgen receptor ELISA assay was performed using PathScan AR Sandwich ELISA (Cell Signaling Catalog #12850) according to the following assay steps:
VCaP cells were seeded at 40,000 cells/well at a volume of 100 µL/well in VCaP assay medium [Phenol red free RPMI (Gibco Cat #11835-030); 5% Charcoal Stripped (Dextran treated) FBS (Omega Scientific, Cat #FB-04); 1% penstrep (Life Technologies, Gibco Cat #: 10378-016)] in Corning 3904 plates. The cells were incubated for a minimum of 3 days. Cells were dosed with PROTACs diluted in 0.01% DMSO and the drug treatment was allowed for 5 hours.
AR ELISA (Cell Signaling) was performed as follows. 1×Cell Signaling Cell lysis buffer was made (Catalogue #9803; comes with the kit). Media from the treated wells is aspirated, and 100 μL 1×cell lysis buffer/well is added. The cells were placed on a shaker for 10 minutes at 4° C. Twenty microliters of lysate was transferred to 100 μl of Diluent in ELISA plate ([…]-0.075 μg/ml). The lysate-diluent mixture was shaken for 30 minutes at 37° C. Allow mouse AR antibody, anti-mouse antibody, TMB, and STOP solution to come to room temperature. The 1×ELISA buffer included in kit was made and loaded in the reservoir. Media from the plates was discarded, the ELISA plate tapped hard on paper towel, and washed 4×200 μl ELISA wash buffer using a plate washer.
One-hundred (100) μL/well of mouse AR detection Ab was added; the plates were covered and shaken at 37° C. for 1 hour; media was discarded from the plates, the plates were tapped on a paper towel, washed 4× with 200 μL ELISA wash buffer with a plate washer.
One-hundred (100) μL/well of anti-mouse—HRP conjugated Ab (comes with the kit) was added; the plates were covered and shaken at 37° C. for 30 minutes; the TMB reagent was allowed to come to room temperature; the media was discard from the plate, the plates were tapped on paper towel, washed 4× with 200 μL of ELISA wash buffer; the plates were tapped the plates on paper towel. One-hundred (100) μL of TMB was added and the plates shaken for 2 minutes—while watching for color development. One-hundred (100) μL Stop solution was added when light blue color developed. Plates were shaken and read at 450 nm.

SMILES | AR Dmax | DC50 [nM]
Cc1nc2c(OCCCCCN3CCN(c4ccc(C(=O)N[C@H]5C(C)(C)[C@H](Oc6ccc(C#N)c(Cl)c6)C5(C)C)cn4)CC3)cccc2c(=O)n1C1CCC(=O)NC1=O (some centres unmarked) [PROTAC-30, N-((1r,3r)-3-(3-chloro-4-cyanophenoxy)-2,2,4,4-tetramethylcyclobutyl)-6-(4-(5-((3-(2,6-dioxopiperidin-3-yl)-2-methyl-4-oxo-3,4-dihydroquinazolin-8-yl)oxy)pentyl)piperazin-1-yl)nicotinamide] | C (C <= 50) | ≥ 100
CC1(C)[C@H](NC(=O)c2ccc(N3CCN(CCCCCOc4ccc5c(c4)S(=O)(=O)N(C4CCC(=O)NC4=O)C5=O)CC3)nc2)C(C)(C)[C@H]1Oc1ccc(C#N)c(Cl)c1 (some centres unmarked) [PROTAC-33, N-((1r,3r)-3-(3-chloro-4-cyanophenoxy)-2,2,4,4-tetramethylcyclobutyl)-6-(4-(5-((2-(2,6-dioxopiperidin-3-yl)-1,1-dioxido-3-oxo-2,3-dihydrobenzo[d]isothiazol-6-yl)oxy)pentyl)piperazin-1-yl)nicotinamide] | B (50 < B <= 75) | 1 to 10
CC1(C)[C@H](NC(=O)c2ccc(N3CCN(CCOc4cccc5c4CN(c4ccc(F)cc4F)C5=O)CC3)nc2)C(C)(C)[C@H]1Oc1ccc(C#N)c(Cl)c1 [PROTAC-39, N-((1r,3r)-3-(3-chloro-4-cyanophenoxy)-2,2,4,4-tetramethylcyclobutyl)-6-(4-(2-((2-(2,4-difluorophenyl)-1-oxoisoindolin-4-yl)oxy)ethyl)piperazin-1-yl)nicotinamide] | 0C (C <= 50) | ≥ 100
CC1(C)[C@H](NC(=O)c2ccc(N3CCN(CCOCCOc4cccc5c4CN(c4ccc(F)cc4F)C5=O)CC3)nc2)C(C)(C)[C@H]1Oc1ccc(C#N)c(Cl)c1 [PROTAC-40, rac-N-((1r,3r)-3-(3-chloro-4-cyanophenoxy)-2,2,4,4-tetramethylcyclobutyl)-6-(4-(2-(2-((2-(2,4-difluorophenyl)-1-oxoisoindolin-4-yl)oxy)ethoxy)ethyl)piperazin-1-yl)nicotinamide] | C (C <= 50) | ≥ 100
CC1(C)[C@H](NC(=O)c2ccc(N3CCN(CCCCCOc4ccc5c(c4)C(=O)N(c4ccc(F)cc4F)C5=O)CC3)nc2)C(C)(C)[C@H]1Oc1ccc(C#N)c(Cl)c1 [PROTAC-41, N-((1r,3r)-3-(3-chloro-4-cyanophenoxy)-2,2,4,4-tetramethylcyclobutyl)-6-(4-(5-((2-(2,4-difluorophenyl)-1,3-dioxoisoindolin-5-yl)oxy)pentyl)piperazin-1-yl)nicotinamide] | C (C <= 50) | ≥ 100
CC1(C)[C@H](NC(=O)c2ccc(N3CCN(CCCCCOc4ccc5c(c4)C(=O)N(c4ccc(C#N)[nH]c4=O)C5=O)CC3)nc2)C(C)(C)[C@H]1Oc1ccc(C#N)c(Cl)c1 [PROTAC-42, N-((1r,3r)-3-(3-chloro-4-cyanophenoxy)-2,2,4,4-tetramethylcyclobutyl)-6-(4-(5-((2-(6-cyano-2-oxo-1,2-dihydropyridin-3-yl)-1,3-dioxoisoindolin-5-yl)oxy)pentyl)piperazin-1-yl)nicotinamide] | C (C <= 50) | 10 to 100
CC1(C)[C@H](NC(=O)c2ccc(N3CCC(CN4CCN(c5ccc6c(c5)C(=O)N(c5ccc(=O)[nH]c5)C6=O)CC4)CC3)cc2)C(C)(C)[C@H]1Oc1ccc(C#N)c(Cl)c1 [PROTAC-43, N-((1r,3r)-3-(3-chloro-4-cyanophenoxy)-2,2,4,4-tetramethylcyclobutyl)-4-(4-((4-(1,3-dioxo-2-(6-oxo-1,6-dihydropyridin-3-yl)isoindolin-5-yl)piperazin-1-yl)methyl)piperidin-1-yl)benzamide] | C (C <= 50) | ≥ 100
CC1(C)[C@H](NC(=O)c2ccc(N3CCC(CN4CCN(c5ccc6c(c5)C(=O)N(c5ccc[nH]c5=O)C6=O)CC4)CC3)cc2)C(C)(C)[C@H]1Oc1ccc(C#N)c(Cl)c1 [PROTAC-44, rac-N-((1r,3r)-3-(3-chloro-4-cyanophenoxy)-2,2,4,4-tetramethylcyclobutyl)-4-(4-((4-(1,3-dioxo-2-(2-oxo-1,2-dihydropyridin-3-yl)isoindolin-5-yl)piperazin-1-yl)methyl)piperidin-1-yl)benzamide] | C (C <= 50) | ≥ 100
CC1(C)[C@H](NC(=O)c2ccc(N3CCC(CN4CCN(c5ccc6c(c5)C(=O)N(c5ccc(O)[nH]c5=O)C6=O)CC4)CC3)cc2)C(C)(C)[C@H]1Oc1ccc(C#N)c(Cl)c1 [PROTAC-45, N-((1r,3r)-3-(3-chloro-4-cyanophenoxy)-2,2,4,4-tetramethylcyclobutyl)-4-(4-((4-(2-(6-hydroxy-2-oxo-1,2-dihydropyridin-3-yl)-1,3-dioxoisoindolin-5-yl)piperazin-1-yl)methyl)piperidin-1-yl)benzamide] | C (C <= 50) | ≥ 100
CC1(C)[C@H](NC(=O)c2ccc(N3CCN(CCOCCOCc4cc5ccccc5c(=O)n4C4CCC(=O)NC4=O)CC3)nc2)C(C)(C)[C@H]1Oc1ccc(C#N)c(Cl)c1 (some centres unmarked) [PROTAC-46, N-((1r,3r)-3-(3-chloro-4-cyanophenoxy)-2,2,4,4-tetramethylcyclobutyl)-6-(4-(2-(2-((2-(2,6-dioxopiperidin-3-yl)-1-oxo-1,2-dihydroisoquinolin-3-yl)methoxy)ethoxy)ethyl)piperazin-1-yl)nicotinamide] | C (C <= 50) | ≥ 100
CC1(C)[C@H](NC(=O)c2ccc(N3CCN(CCCCCOc4ccc5ncc(-n6ccc(=O)[nH]c6=O)cc5c4)CC3)nc2)C(C)(C)[C@H]1Oc1ccc(C#N)c(Cl)c1 [PROTAC-47, N-((1r,3r)-3-(3-chloro-4-cyanophenoxy)-2,2,4,4-tetramethylcyclobutyl)-6-(4-(5-((3-(2,4-dioxo-3,4-dihydropyrimidin-1(2H)-yl)quinolin-6-yl)oxy)pentyl)piperazin-1-yl)nicotinamide] | C (C <= 50) | 1 to 10
CC1(C)[C@H](NC(=O)c2ccc(N3CCN(CCCOc4ccc(C(=O)NC5CCC(=O)NC5=O)nc4)CC3)nc2)C(C)(C)[C@H]1Oc1ccc(C#N)c(Cl)c1 (some centres unmarked) [PROTAC-50, 5-(3-(4-(5-(((1r,3r)-3-(3-chloro-4-cyanophenoxy)-2,2,4,4-tetramethylcyclobutyl)carbamoyl)pyridin-2-yl)piperazin-1-yl)propoxy)-N-(2,6-dioxopiperidin-3-yl)picolinamide] | B (50 < B <= 75) | < 1
CC1(C)[C@H](NC(=O)c2ccc(N3CCC(CN4CCN(c5ccc(C(=O)NC6CCC(=O)NC6=O)nc5)CC4)CC3)nc2)C(C)(C)[C@H]1Oc1ccc(C#N)c(Cl)c1 (some centres unmarked) [PROTAC-53, 5-(4-((1-(5-(((1r,3r)-3-(3-chloro-4-cyanophenoxy)-2,2,4,4-tetramethylcyclobutyl)carbamoyl)pyridin-2-yl)piperidin-4-yl)methyl)piperazin-1-yl)-N-(2,6-dioxopiperidin-3-yl)picolinamide] | A (A > 75) | < 1
N#Cc1ccc(O[C@H]2CC[C@H](NC(=O)c3ccc(N4CCC(CN5CCN(c6cc(C(=O)O)c(C(=O)NC7CCC(=O)NC7=O)cc6F)CC5)CC4)nn3)CC2)cc1Cl (some centres unmarked) [PROTAC-57, 5-(4-((1-(6-(((1r,4r)-4-(3-chloro-4-cyanophenoxy)cyclohexyl)carbamoyl)pyridazin-3-yl)piperidin-4-yl)methyl)piperazin-1-yl)-2-((2,6-dioxopiperidin-3-yl)carbamoyl)-4-fluorobenzoic acid] | A (A > 75) | 1 to 10
N#Cc1ccc(O[C@H]2CC[C@H](NC(=O)c3ccc(N4CCC(CN5CCN(c6cc(C(=O)NC7CCC(=O)NC7=O)c(C(=O)O)cc6F)CC5)CC4)nn3)CC2)cc1Cl (some centres unmarked) [PROTAC-58, 4-(4-((1-(6-(((1r,4r)-4-(3-chloro-4-cyanophenoxy)cyclohexyl)carbamoyl)pyridazin-3-yl)piperidin-4-yl)methyl)piperazin-1-yl)-2-((2,6-dioxopiperidin-3-yl)carbamoyl)-5-fluorobenzoic acid] | B (50 < B <= 75) | 10 to 100
N#Cc1ccc(O[C@H]2CC[C@H](NC(=O)c3ccc(N4CCC(CN5CCN(c6ccc(C(=O)NC7CCC(=O)NC7=O)cc6)CC5)CC4)nn3)CC2)cc1Cl (some centres unmarked) [PROTAC-59, N-((1r,4r)-4-(3-chloro-4-cyanophenoxy)cyclohexyl)-6-(4-((4-(4-((2,6-dioxopiperidin-3-yl)carbamoyl)phenyl)piperazin-1-yl)methyl)piperidin-1-yl)pyridazine-3-carboxamide] | A (A > 75) | < 1
